From the NIST ThermoML archive (doi:10.1016/j.jct.2017.09.007)
Numbers after ± are expanded uncertainties.

Columns and labels:
[1] = molar heat capacity at constant pressure; conditions: 298.15 K, 100 kPa, Small sample (50 mg) DSC
[2] = Molar enthalpy of transition or fusion; conditions: Crystal; DSC
[3] = Crystal; DTA

In the case of `CCOC(=O)c1ccc(O)cc1` [ethyl 4-hydroxybenzoate], the “molar heat capacity at constant pressure” value ([1]; Crystal) is reported as 233.93 ± 3.6 J/K/mol, the “Molar enthalpy of transition or fusion” value [2] is reported as 6.57 ± 0.151 kcal/mol and the Normal melting temperature [3] is reported as 115.70 ± 0.45 °C.

In the case of `CCOC(=O)c1cccc(O)c1` [ethyl 3-hydroxybenzoate], the “molar heat capacity at constant pressure” value ([1]; Crystal) is reported as 217.22 ± 3.4 J/K/mol, the “Molar enthalpy of transition or fusion” value [2] is reported as 6.17 ± 0.146 kcal/mol and the Normal melting temperature [3] is reported as 72.23 ± 0.46 °C.

In the case of `CCOC(=O)c1ccccc1O` [ethyl 2-hydroxybenzoate], the “molar heat capacity at constant pressure” value ([1]; Liquid) is reported as 283.07 ± 4.4 J/K/mol, the “Molar enthalpy of transition or fusion” value [2] is reported as 5.78 ± 0.146 kcal/mol and the Normal melting temperature [3] is reported as 1.33 ± 0.53 °C.
